Data from US20160130278A1 (TAISHO PHARMACEUTICAL CO., LTD, priority 2013, published 2016).
pIC50: −log10 of the molar value.

target: T1, human type 1 glycine transporter (GlyT1) (Homo sapiens, UniProt P48067); experiment: Glycine uptake inhibition experiment ([3H]glycine uptake); type: cell-based; details: GlyT1
T1 construct: T98G cells (glioma cells) expressing human type 1 glycine transporter (GlyT1) were used
T1 sequence (P48067 1-706): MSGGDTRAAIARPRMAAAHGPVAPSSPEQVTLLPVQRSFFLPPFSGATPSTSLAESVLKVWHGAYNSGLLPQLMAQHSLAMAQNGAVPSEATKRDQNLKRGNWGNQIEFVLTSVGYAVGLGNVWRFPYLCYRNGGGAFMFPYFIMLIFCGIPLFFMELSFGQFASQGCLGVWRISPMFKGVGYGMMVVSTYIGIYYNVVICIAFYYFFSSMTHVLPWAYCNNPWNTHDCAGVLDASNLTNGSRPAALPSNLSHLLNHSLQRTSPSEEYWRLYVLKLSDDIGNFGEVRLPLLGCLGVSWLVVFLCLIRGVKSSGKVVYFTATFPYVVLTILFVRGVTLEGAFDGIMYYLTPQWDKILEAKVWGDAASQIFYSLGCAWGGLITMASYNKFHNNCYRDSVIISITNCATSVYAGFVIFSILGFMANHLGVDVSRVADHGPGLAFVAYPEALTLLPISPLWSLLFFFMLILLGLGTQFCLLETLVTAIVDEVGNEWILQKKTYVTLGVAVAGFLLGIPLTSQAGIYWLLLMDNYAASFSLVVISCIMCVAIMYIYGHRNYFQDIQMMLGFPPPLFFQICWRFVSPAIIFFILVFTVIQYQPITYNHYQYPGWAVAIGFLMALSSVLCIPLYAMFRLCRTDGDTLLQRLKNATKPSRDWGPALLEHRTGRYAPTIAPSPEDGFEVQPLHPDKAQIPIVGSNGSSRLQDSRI
Summary of the method: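 T98G glioma cells expressing human GlyT1 were pretreated 10 min with compound in HEPES buffer pH 7.4 (0.2% BSA), then incubated with compound plus 250 nM final [3H]glycine for 15 min at room temperature. Intracellular radioactivity was counted after NaOH lysis; 10 μM ALX5407 defined non-specific uptake. IC50 came from 10^−9–10^−5 M curves.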

| pIC50 | Compound |
| --- | --- |
| 6.92 | O=C(N[C@@H](c1cccc(F)c1)C1(O)CCC(F)(F)CC1)c1nccc(C(F)(F)F)c1Cl (single isomer, unassigned) [Compound 233, 3-chloro-N-[(4,4-difluoro-1-hydroxycyclohexyl)(3-fluorophenyl)methyl]-4-(trifluoromethyl)pyridine-2-carboxamide] |
| 6.77 | O=C(NC(c1cccc(Br)c1)C1(O)CCCC1)c1nccc(C(F)(F)F)c1Cl (centres unmarked) [Compound 31, N-[(3-bromophenyl)(1-hydroxycyclopentyl)metyl]-3-chloro-4-(trifluoromethyl)pyridine-2-carboxamide] |
| 6.04 | O=C(NC(c1cccc(CO)c1)C1(O)CCCC1)c1nccc(C(F)(F)F)c1Cl (centres unmarked) [Compound 104, 3-chloro-N-{(1-hydroxycyclopentyl)[3-(hydroxymethyl)phenyl]methyl}-4-(trifluoromethyl)pyridine-2-carboxamide] |
| 7.16 | O=C(NC(c1cccc(-c2cccnc2)c1)C1(O)CCCC1)c1nccc(C(F)(F)F)c1Cl (single isomer, unassigned) [Compound 25, 3-chloro-N-{(1-hydroxycylcopentyl)[3-(pyridin-3-yl)phenyl]methyl}-4-(trifluoromethyl)pyridine-2-carboxamide] |
| 5.96 | O=C(NC(c1cccc(Cl)c1)C1(O)CCC(O)C1)c1nccc(C(F)(F)F)c1Cl (centres unmarked) [Compound 128, 3-chloro-N-[(3-chlorophenyl)(1,3-dihydroxycyclopentyl)methyl]-4-(trifluoromethyl)pyridine-2-carboxamide] |
| 5.42 | CCn1cc(-c2cccc(C(NC(=O)c3nccc(C(F)(F)F)c3Cl)C3(O)CCC(F)(F)CC3)c2)cn1 (single isomer, unassigned) [Compound 91, 3-chloro-N-{(4,4-difluoro-1-hydroxycyclohexyl)[3-(1-ethyl-1H-pyrazol-4-yl)phenyl]methyl}-4-(trifluoromethyl)pyridine-2-carboxamide] |
| 7.00 | O=C(NC(c1cccc(F)c1)C1(O)CCC(F)CC1)c1nccc(C(F)(F)F)c1Cl (single isomer, unassigned) [Compound 236, 3-chloro-N-[(cis-4-fluoro-1-hydroxycyclohexyl)(3-fluorophenyl)methyl]-4-(trifluoromethyl)pyridine-2-carboxamide] |
| 6.72 | O=C(NC(c1cccc(Cl)n1)[C@]1(O)CC[C@@H](F)CC1)c1cc(C(F)(F)F)ccc1Cl (single isomer, unassigned) [Compound 362] |
| 6.28 | CCn1cc(-c2cccc(C(NC(=O)c3cccc(Cl)c3Cl)C3(O)CCC(F)(F)CC3)c2)cn1 (single isomer, unassigned) [Compound 144, 2,3-dichloro-N-{(4,4-difluoro-1-hydroxycyclohexyl)[3-(1-ethyl-1H-pyrazol-4-yl)phenyl]methyl}benzamide] |
| 6.77 | O=C(NC(c1ccccc1Cl)[C@]1(O)CC[C@@H](F)CC1)c1ccnc(C(F)(F)F)c1Cl (single isomer, unassigned) [Compound 211, 3-chloro-N-[(2-chlorophenyl)(cis-4-fluoro-1-hydroxycyclohexyl)methyl]-2-(trifluoromethyl)pyridine-4-carboxamide] |
| 6.17 | CCn1cc(-c2cccc(C(NC(=O)c3cccc(Cl)c3Cl)C3(O)CCC(F)(F)CC3)c2)cn1 (single isomer, unassigned) [Compound 145, 2,3-dichloro-N-{(4,4-difluoro-1-hydroxycyclohexyl)[3-(1-ethyl-1H-pyrazol-4-yl)phenyl]methyl}benzamide] |
| 5.96 | O=C1CCC(O)(C(NC(=O)c2nccc(C(F)(F)F)c2Cl)c2cccc(Cl)c2)C1 (centres unmarked) [Compound 130, 3-chloro-N-[(3-chlorophenyl)(1-hydroxy-3-oxocyclopentyl)methyl]-4-(trifluoromethyl)pyridine-2-carboxamide] |
| 6.00 | O=C(NC(c1cccc(F)c1Cl)[C@]1(O)CC[C@@H](F)CC1)c1c(Cl)cccc1Cl (single isomer, unassigned) [Compound 254, 2,6-dichloro-N-[(2-chloro-3-fluorophenyl)(cis-4-fluoro-1-hydroxycyclohexyl)methyl]benzamide] |
| 6.38 | O=C(NC(c1cccc(F)c1Cl)[C@]1(O)CC[C@@H](F)CC1)c1cc(Cl)ccc1C(F)(F)F (single isomer, unassigned) [Compound 314, 5-chloro-N-[(2-chloro-3-fluorophenyl)(cis-4-fluoro-1-hydroxycyclohexyl)methyl]-2-(trifluoromethyl)benzamide] |

The remaining lines, values behind:

| Compound | pIC50 |
| --- | --- |
| O=C(NC(c1cc(F)cc(Cl)c1)C1(O)CCCC1)c1nccc(C(F)(F)F)c1Cl (single isomer, unassigned) [Compound 94, 3-chloro-N-[(3-chloro-5-fluorophenyl)(1-hydroxycyclopentyl)methyl]-4-(trifluoromethyl)pyridine-2-carboxamide] | 6.96 |
| [2H]C1([2H])C([2H])([2H])C([2H])([2H])C(O)(C(NC(=O)c2nccc(C(F)(F)F)c2Cl)c2cccc(Cl)c2)C([2H])([2H])C1([2H])[2H] (single isomer, unassigned) [Compound 231, 3-chloro-N-{(3-chlorophenyl)[1-hydroxy(^2H10)cyclohexyl]methyl}-4-(trifluoromethyl)pyridine-2-carboxamide] | 7.40 |
| Cn1nc(C(F)(F)F)cc1C(=O)NC(c1cccc(F)c1Cl)[C@]1(O)CC[C@@H](F)CC1 (single isomer, unassigned) [Compound 272, N-[(2-chloro-3-fluorophenyl)(cis-4-fluoro-1-hydroxycyclohexyl)methyl]-1-methyl-3-(trifluoromethyl)-1H-pyrazole-5-carboxamide] | 5.60 |
| O=C(NC(c1cc(Cl)ccn1)[C@]1(O)CC[C@@H](F)CC1)c1nccc(C(F)(F)F)c1Cl (single isomer, unassigned) [Compound 286, 3-chloro-N-[(4-chloropyridin-2-yl)(cis-4-fluoro-1-hydroxycyclohexyl)methyl]-4-(trifluoromethyl)pyridine-2-carboxamide] | 6.85 |
| O=C(NC(c1cccc(F)c1Cl)[C@]1(O)CC[C@@H](F)CC1)c1ccc(C(F)(F)F)cc1-n1cnnn1 (single isomer, unassigned) [Compound 391, N-[(2-chloro-3-fluorophenyl)(cis-4-fluoro-1-hydroxycyclohexyl)methyl]-2-(1H-tetrazol-1-yl)-4-(trifluoromethyl)benzamide] | 7.57 |
| CS(=O)(=O)c1ccc(C(F)(F)F)cc1C(=O)NC(c1cc(Cl)ccn1)[C@]1(O)CC[C@@H](F)CC1 (single isomer, unassigned) [Compound 396, N-[(4-chloropyridin-2-yl)(cis-4-fluoro-1-hydroxycyclohexyl]methyl]-2-(methylsulfonyl)-5-(trifluoromethyl)benzamide] | 6.54 |
| Cn1nc2c(c1C(=O)NC(c1cccc(F)c1Cl)[C@]1(O)CC[C@@H](F)CC1)CCCC2 (single isomer, unassigned) [Compound 260, N-[(2-chloro-3-fluorophenyl)(cis-4-fluoro-1-hydroxycyclohexyl)methyl]-2-methyl-4,5,6,7-tetrahydro-2H-indazol-3-carboxamide] | 5.77 |
| O=C(N[C@@H](c1cccc(Br)c1)C1(O)CCCC1)c1nccc(C(F)(F)F)c1-n1nccn1 [Compound 70, N-[(S)-(3-bromophenyl)(1-hydroxycyclopentyl)methyl]-3-(2H-1,2,3-triazol-2-yl)-4-(trifluoromethyl)pyridine-2-carboxamide] | 5.92 |
| O=C(NC(c1cnccc1Cl)[C@]1(O)CC[C@@H](F)CC1)c1nccc(C(F)(F)F)c1Cl (single isomer, unassigned) [Compound 308, 3-chloro-N-[(4-chloropyridin-3-yl)(cis-4-fluoro-1-hydroxycyclohexyl)methyl]-4-(trifluoromethyl)pyridine-2-carboxamide] | 6.42 |
| O=C(NC(c1cccc(F)c1Cl)[C@]1(O)CC[C@@H](F)CC1)c1nsc(Cl)c1Cl (single isomer, unassigned) [Compound 271, 4,5-dichloro-N-[(2-chloro-3-fluorophenyl)(cis-4-fluoro-1-hydroxycyclohexyl)methyl]-1,2-thiazol-3-carboxamide] | 5.96 |

same assay, conditions: human GlyT1

| pIC50 | Compound |
| --- | --- |
| 7.80 | O=C(NC(c1cccc(Cl)n1)C1(O)CCCC1)c1nccc(C(F)(F)F)c1Cl (single isomer, unassigned) [Compound 397, 3-chloro-N-[(6-chloropyridin-2-yl)(1-hydroxycyclopentyl)methyl]-4-(trifluoromethyl)pyridine-2-carboxamide] |
| 6.35 | CS(=O)(=O)c1cc(C(F)(F)F)ccc1C(=O)NC(c1cccc(Cl)c1F)C1(O)CCC(F)(F)CC1 (single isomer, unassigned) [Compound 402, N-[(3-chloro-2-fluorophenyl)(4,4-difluoro-1-hydroxycyclohexyl)methyl]-2-(methylsulfonyl)-4-(trifluoromethyl)benzamide] |
